{
  "source": "PubChem BioAssay (NCI)",
  "assay_in_all_cases": "NCI anticancer screen, dose series, 48 h",
  "key": {"SF-295 CNS": {"tested_on": "SF-295 CNS"}, "HCC-2998 colon": {"tested_on": "HCC-2998 colon"}, "DU-145 prostate": {"tested_on": "DU-145 prostate"}, "SR leukemia": {"tested_on": "SR leukemia"}, "UACC-62 melanoma": {"tested_on": "UACC-62 melanoma"}, "LOX IMVI melanoma": {"tested_on": "LOX IMVI melanoma"}, "PC-3 prostate": {"tested_on": "PC-3 prostate"}, "NCI-H460 lung": {"tested_on": "NCI-H460 lung"}, "A498 renal": {"tested_on": "A498 renal"}, "T-47D breast": {"tested_on": "T-47D breast"}, "786-0 renal": {"tested_on": "786-0 renal"}, "SK-MEL-5 melanoma": {"tested_on": "SK-MEL-5 melanoma"}, "K-562 leukemia": {"tested_on": "K-562 leukemia"}, "SK-MEL-28 melanoma": {"tested_on": "SK-MEL-28 melanoma"}, "SK-MEL-2 melanoma": {"tested_on": "SK-MEL-2 melanoma"}, "HOP-92 NSCLC": {"tested_on": "HOP-92 NSCLC"}, "HCT-15 colon": {"tested_on": "HCT-15 colon"}, "EKVX NSCLC": {"tested_on": "EKVX NSCLC"}, "NCI-H23 lung": {"tested_on": "NCI-H23 lung"}, "HS 578T breast": {"tested_on": "HS 578T breast"}, "COLO 205 colon": {"tested_on": "COLO 205 colon"}, "MALME-3M melanoma": {"tested_on": "MALME-3M melanoma"}, "SF-539 CNS": {"tested_on": "SF-539 CNS"}, "NCI-H226 lung": {"tested_on": "NCI-H226 lung"}, "MOLT-4 leukemia": {"tested_on": "MOLT-4 leukemia"}, "MDA-MB-435": {"tested_on": "MDA-MB-435"}, "M14 melanoma": {"tested_on": "M14 melanoma"}, "CAKI-1 renal": {"tested_on": "CAKI-1 renal"}, "HCT-116 colon": {"tested_on": "HCT-116 colon"}},
  "note": "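Method: 48-hour compound exposure of cells in 96-well plates, five concentrations, linear interpolation of endpoints. Here, GI50 denotes the concentration required for 50% inhibition of growth. TGI: total growth inhibition.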",
  "data": [
    {"smiles": "Cc1ccc(C2=Nc3c(N)nc(N)nc3NC(c3cccc(Nc4ccnc5cc(C(F)(F)F)ccc45)c3)C2)cc1", "note": "(configuration not stated)", "values": [
      {"measurement": "GI50", "setting": "SF-295 CNS", "result": 1560, "unit": "nM"},
      {"measurement": "TGI", "setting": "SF-295 CNS", "result": 3170, "unit": "nM"},
      {"measurement": "GI50", "setting": "HCC-2998 colon", "result": 1770, "unit": "nM"},
      {"measurement": "TGI", "setting": "HCC-2998 colon", "result": 3330, "unit": "nM"},
      {"measurement": "GI50", "setting": "DU-145 prostate", "result": 2780, "unit": "nM"},
      {"measurement": "TGI", "setting": "DU-145 prostate", "result": 6520, "unit": "nM"},
      {"measurement": "GI50", "setting": "SR leukemia", "result": 1530, "unit": "nM"},
      {"measurement": "TGI", "setting": "SR leukemia", "result": 5440, "unit": "nM"},
      {"measurement": "GI50", "setting": "UACC-62 melanoma", "result": 1700, "unit": "nM"},
      {"measurement": "TGI", "setting": "UACC-62 melanoma", "result": 3460, "unit": "nM"},
      {"measurement": "GI50", "setting": "LOX IMVI melanoma", "result": 1740, "unit": "nM"},
      {"measurement": "TGI", "setting": "LOX IMVI melanoma", "result": 3300, "unit": "nM"},
      {"measurement": "GI50", "setting": "PC-3 prostate", "result": 1590, "unit": "nM"},
      {"measurement": "TGI", "setting": "PC-3 prostate", "result": 4380, "unit": "nM"},
      {"measurement": "GI50", "setting": "NCI-H460 lung", "result": 1870, "unit": "nM"},
      {"measurement": "TGI", "setting": "NCI-H460 lung", "result": 3680, "unit": "nM"},
      {"measurement": "GI50", "setting": "A498 renal", "result": 2150, "unit": "nM"},
      {"measurement": "TGI", "setting": "A498 renal", "result": 8020, "unit": "nM"},
      {"measurement": "GI50", "setting": "T-47D breast", "result": 2220, "unit": "nM"},
      {"measurement": "TGI", "setting": "T-47D breast", "result": 8730, "unit": "nM"},
      {"measurement": "GI50", "setting": "786-0 renal", "result": 1510, "unit": "nM"},
      {"measurement": "TGI", "setting": "786-0 renal", "result": 2900, "unit": "nM"},
      {"measurement": "GI50", "setting": "SK-MEL-5 melanoma", "result": 1600, "unit": "nM"},
      {"measurement": "TGI", "setting": "SK-MEL-5 melanoma", "result": 2980, "unit": "nM"},
      {"measurement": "GI50", "setting": "K-562 leukemia", "result": 1370, "unit": "nM"},
      {"measurement": "TGI", "setting": "K-562 leukemia", "result": 6980, "unit": "nM"},
      {"measurement": "GI50", "setting": "SK-MEL-28 melanoma", "result": 1700, "unit": "nM"},
      {"measurement": "TGI", "setting": "SK-MEL-28 melanoma", "result": 3330, "unit": "nM"},
      {"measurement": "GI50", "setting": "SK-MEL-2 melanoma", "result": 1950, "unit": "nM"},
      {"measurement": "TGI", "setting": "SK-MEL-2 melanoma", "result": 4050, "unit": "nM"},
      {"measurement": "GI50", "setting": "HOP-92 NSCLC", "result": 1350, "unit": "nM"},
      {"measurement": "TGI", "setting": "HOP-92 NSCLC", "result": 2900, "unit": "nM"},
      {"measurement": "GI50", "setting": "HCT-15 colon", "result": 1760, "unit": "nM"},
      {"measurement": "TGI", "setting": "HCT-15 colon", "result": 3570, "unit": "nM"},
      {"measurement": "GI50", "setting": "EKVX NSCLC", "result": 2910, "unit": "nM"},
      {"measurement": "TGI", "setting": "EKVX NSCLC", "result": 11500, "unit": "nM"},
      {"measurement": "GI50", "setting": "NCI-H23 lung", "result": 2180, "unit": "nM"},
      {"measurement": "TGI", "setting": "NCI-H23 lung", "result": 5580, "unit": "nM"},
      {"measurement": "GI50", "setting": "HS 578T breast", "result": 1660, "unit": "nM"},
      {"measurement": "TGI", "setting": "HS 578T breast", "result": 4460, "unit": "nM"},
      {"measurement": "GI50", "setting": "COLO 205 colon", "result": 1710, "unit": "nM"},
      {"measurement": "TGI", "setting": "COLO 205 colon", "result": 3680, "unit": "nM"},
      {"measurement": "GI50", "setting": "MALME-3M melanoma", "result": 1860, "unit": "nM"},
      {"measurement": "TGI", "setting": "MALME-3M melanoma", "result": 3870, "unit": "nM"},
      {"measurement": "GI50", "setting": "SF-539 CNS", "result": 1770, "unit": "nM"},
      {"measurement": "TGI", "setting": "SF-539 CNS", "result": 3490, "unit": "nM"},
      {"measurement": "GI50", "setting": "NCI-H226 lung", "result": 4880, "unit": "nM"},
      {"measurement": "TGI", "setting": "NCI-H226 lung", "result": 22300, "unit": "nM"},
      {"measurement": "GI50", "setting": "MOLT-4 leukemia", "result": 2430, "unit": "nM"},
      {"measurement": "TGI", "setting": "MOLT-4 leukemia", "result": 6430, "unit": "nM"},
      {"measurement": "GI50", "setting": "MDA-MB-435", "result": 1200, "unit": "nM"},
      {"measurement": "TGI", "setting": "MDA-MB-435", "result": 2630, "unit": "nM"},
      {"measurement": "GI50", "setting": "M14 melanoma", "result": 1720, "unit": "nM"},
      {"measurement": "TGI", "setting": "M14 melanoma", "result": 3430, "unit": "nM"},
      {"measurement": "GI50", "setting": "CAKI-1 renal", "result": 2290, "unit": "nM"},
      {"measurement": "TGI", "setting": "CAKI-1 renal", "result": 8710, "unit": "nM"},
      {"measurement": "GI50", "setting": "HCT-116 colon", "result": 1610, "unit": "nM"}
    ]}
  ]
}
